Assay [1] concerns the target T1, Estrogen receptor (Homo sapiens, UniProt Q92731+P03372). Description: Inhibition of estrogen dependent human ovarian cancer SKOV-3 cell proliferation. The note with it: sk-ov-3. It is filed as functional, cell-based.
Assay [2] has as its target T1, Estrogen receptor. Nature of the assay: Inhibition of estrogen dependent human uterus cancer Ishikawa cell proliferation. It is filed as functional, cell-based.
The subject of assay [3] is A2780. Description: inhibitory concentration against estrogen independent human ovarian cancer cell line A2780wt. It is filed as functional, cell-based.
In assay [4] the test system is A2780. Nature of the assay: inhibitory concentration against estrogen independent human ovarian cancer cell line A2780cp. It counts as functional, cell-based.
In a further assay the test system is HeLa. Nature of the assay: inhibitory concentration against estrogen independent human uterus cancer cell line HeLa. It is filed as functional, cell-based.
Assay [5] addresses T1, Estrogen receptor. Nature of the assay: Inhibition of estrogen dependent human ovarian cancer OVCAR-3 cell proliferation. It counts as functional, cell-based.
Assay [6] can be described thus: inhibitory concentration against estrogen independent human uterus cancer cell line HEC-1-A. It is filed as functional, cell-based. The note with it: cancer cell lines.
Assay [7] can be described thus: inhibitory concentration against estrogen independent human uterus cancer cell line KLE. It is filed as functional, cell-based. The note with it: cancer cell lines.
Assay [8] addresses T1, Estrogen receptor. Nature of the assay: Inhibition of estrogen dependent human uterus cancer RL-95-2 cell proliferation. It is filed as functional.

pIC50: −log10 of the molar value.

As a reminder, the pIC50 is −log10 of the IC50, conventionally taken in molar units. Turning to CISPLATIN, the pIC50 was 5.24 against Estrogen receptor [1]; 5.10 against Estrogen receptor [2]; 6.15 with A2780 [3]; 5.19 in the assay on A2780 [4]; 5.44 with HeLa; 5.60 against Estrogen receptor [5]. Moreover, the pIC50 in assay [6] was 4.93; in assay [7], 4.90; against Estrogen receptor [8], 4.99.

The values above are taken from ChEMBL document CHEMBL1138709, “Biological evaluation of novel estrogen-platinum(II) hybrid molecules on uterine and ovarian cancers-molecular modeling studies” (Bioorg Med Chem Lett, 2004).
